Experimental data as given in patent EP4703354A1, “COMPOUND AS CCR6 ANTAGONIST, AND PHARMACEUTICAL COMPOSITION AND USE THEREOF” (Wuhan Createrna Science and Technology Co.,Ltd., priority 2023, dated 2024).
Each block holds one molecule with its values, some of them ahead of it.

Assays:
human CCR6 = target: T1, human CCR6 (Homo sapiens, UniProt P51684); test: human CCR6 calcium flux activity (FLIPR, HEK293 cells stably expressing human CCR6, CCL20 stimulation); assay type: cell-based; conditions: for IC50: HEK293 cells stably expressing human CCR6, EC80 human MIP-3 alpha/CCL20, read-out: CCR6 inhibitory activity, IC50; for CCR6 selectivity: ratio of CXCR2 IC50 to CCR6 IC50
T1 construct: expressed in transfected cells; host or cells: HEK293
T1 sequence (P51684 1-374): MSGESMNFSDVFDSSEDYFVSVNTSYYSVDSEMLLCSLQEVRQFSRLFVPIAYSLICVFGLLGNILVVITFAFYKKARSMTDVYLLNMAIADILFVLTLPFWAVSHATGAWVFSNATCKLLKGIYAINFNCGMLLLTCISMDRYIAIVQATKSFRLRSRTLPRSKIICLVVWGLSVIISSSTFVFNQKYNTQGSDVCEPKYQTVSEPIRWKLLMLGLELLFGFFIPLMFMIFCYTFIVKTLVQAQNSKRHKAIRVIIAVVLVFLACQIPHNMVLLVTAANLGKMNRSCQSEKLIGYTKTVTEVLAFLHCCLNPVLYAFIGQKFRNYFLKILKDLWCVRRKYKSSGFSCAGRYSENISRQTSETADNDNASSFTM
Outline: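 Read-out is the RFUMax−RFUMin calcium signal (494/516 nm, 90 s) after EC80 CCL20 addition, fitted four-parameter for IC50. Before agonist, Fluo-4 Direct-loaded cells sat with compound 50 min at 37 °C plus 10 min at room temperature.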

human CXCR2 = target: T2, human CXCR2 (Homo sapiens, UniProt P25025); test: human CXCR2 calcium flux activity (FLIPR, HEK293 cells stably expressing human CXCR2, IL-8 stimulation); assay type: cell-based; conditions: HEK293 cells stably expressing human CXCR2, EC80 human IL-8; read-out: CXCR2 inhibitory activity, IC50
T2 construct: expressed in transfected cells; host or cells: HEK293
T2 sequence (P25025 1-360): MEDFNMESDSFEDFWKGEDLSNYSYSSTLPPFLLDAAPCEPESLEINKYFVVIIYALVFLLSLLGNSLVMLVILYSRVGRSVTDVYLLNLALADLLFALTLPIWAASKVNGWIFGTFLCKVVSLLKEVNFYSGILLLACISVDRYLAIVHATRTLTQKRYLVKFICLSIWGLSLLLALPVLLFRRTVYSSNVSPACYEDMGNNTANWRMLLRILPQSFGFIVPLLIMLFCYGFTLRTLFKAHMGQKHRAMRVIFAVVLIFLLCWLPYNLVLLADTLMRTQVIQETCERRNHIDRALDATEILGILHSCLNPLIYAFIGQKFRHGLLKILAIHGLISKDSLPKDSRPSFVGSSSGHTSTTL
Description: The activity of the compounds was evaluated using HEK293 cells stably expressing human CXCR2 via the FLIPR platform. A 384-well black cell culture plate (Greiner, 781946) was used, with a seeding density of 20,000 cells/well, and incubated overnight at 37°C in a 5% CO2 incubator. The culture medium in the cell plate wells was removed, and 20 µL of Fluo-4 Direct™ Calcium Assay Buffer (Invitrogen, F10471, Component C), 20 µL of 2× Fluo-4 Direct™ Calcium Assay Reagent (Invitrogen, F10471, Component A) working solution, and 10 µL of 6× test compound working solution were sequentially added to each well. The cell plate was incubated in a 37 °C, 5% CO2 incubator for 50 min, followed by a 10 min incubation at room temperature. Additionally, a 6×EC80 human IL-8 (Sigma, SRP3311) working solution was prepared. After the incubation was completed, 10 µL/well of the 6×EC80 human IL-8 working solution was transferred to the corresponding cell wells using a FLIPR instrument, and the fluorescence signal changes at an excitation wavelength of 494 nm and an emission wavelength of 516 nm were recorded over 130 s. The difference between the maximum fluorescence signal (RFUMax) and the minimum fluorescence signal (RFUMin) was used as the output signal. The compound inhibition rate and the log value of the compound concentration were calculated, and a four-parameter fitting analysis was performed using GraphPad Prism 8 software to obtain the IC50 value of the test compound. Table 1. Inhibitory activity data of compounds against CCR6 and CXCR2

[1] = in vitro liver microsome metabolic stability, human; assay type: in vitro ADME; conditions: Human liver microsomes, 37°C
Description: (§1) Preparation of working solutions for test compounds and standards: An appropriate amount of the compound was accurately weighed and dissolved in a corresponding volume of suitable solvent to prepare 1 mM stock solutions of the test compounds and standards. The stock solutions were then diluted with appropriate solvent to obtain 100 µM working solutions of the test compounds, ensuring that the DMSO content in the working solutions remained below 10%.
(§2) The internal standard compound testosterone (or tolbutamide) and its corresponding solvent, internal standard concentration (200 ng/mL), were selected based on the properties of the test compound.
(§3) • Solution A: 0.1 mol/L K2HPO4 (2.28 g K2HPO4·3H2O was dissolved in 100 mL of double-distilled water); • Solution B: 0.1 mol/L KH2PO4 (1.36 g KH2PO4 was dissolved in 100 mL of double-distilled water); • 80.2 mL of Solution A and 19.8 mL of Solution B were mixed thoroughly, and the pH was adjusted to 7.4.
(§4) 37.5 mg of glycine was weighed, dissolved in 100 mL of ultrapure water, and adjusted to pH 8.0 with NaOH.
(§5) 1.25 mg of glucose-6-phosphate dehydrogenase (400 U/mg) was weighed (the specific amount weighed was calculated based on the activity of the purchased glucose-6-phosphate dehydrogenase), dissolved in 1 mL of glycine buffer to a concentration of 500 U/mL, aliquoted into 20 µL per tube, and stored at -20°C for future use.
(§6) 7.83 mg of NADP, 0.06 mL of D-glucose-6-phosphate (260 mg/mL), and 10.17 mg of MgCl2·6H2O were precisely weighed.
(§7) The mixture was dissolved in 1 mL of pure water. The cofactor ratio composition: NADP 10 mM, D-glucose-6-phosphate 60 mM, MgCl2·6H2O 50 mM.
(§8) The reaction system (taking a 500 µL system as an example) was composed of the following solution ratios: 416.5 µL phosphate buffer, 5 µL compound working solution, 25 µL liver microsomes, 3.5 µL glucose-6-phosphate dehydrogenase, and 50 µL cofactor solution. The total incubation volume could be adjusted according to experimental requirements.
(§9) 416.5 µL of phosphate buffer was taken, 25 µL of liver microsomes, 3.5 µL of glucose-6-phosphate dehydrogenase, and 50 µL of cofactor solution were added, vortexed twice to mix, and preincubated in a 37°C water bath for 5 minutes. Then, 5 µL of the test compound working solution was added, vortexed twice to mix, each time for 2-3 seconds, and placed in a 37°C water bath to initiate the reaction, with two parallel samples set. At 0.5 min, 1 min, 2 min, 5 min, 15 min, and 30 min after the reaction, 50 µL of the mixture was taken and added to centrifuge tubes containing 200 µL of 0°C pre-cooled internal standard working solution to terminate the reaction, vortexed for 1 minute to mix, and centrifuged at 13,000 rpm for 10 minutes in a 4°C pre-cooled high-speed centrifuge. The supernatant was collected for analysis. After the compound was added and vortex-mixed, 50 µL of the mixture was rapidly transferred to a centrifuge tube containing 200 µL of a pre-cooled (0°C) internal standard working solution to terminate the reaction, vortex-mixed for 1 minute, and used as the relative zero-point sample (relative to the standard group). The sample was then placed into a 37°C water bath to initiate the reaction, and timing was started.
(§10) The sample analysis of the test compound was performed using the liquid chromatography-tandem mass spectrometry (LCMS/MS) method. The semi-quantitative determination was performed using the ratio of the analyte peak area to the internal standard peak area. The retention times of the analyte and internal standard, chromatogram acquisition, and chromatogram integration were processed using Analyst software.
(§11) The in vitro elimination rate constant k of the test compound and the control compound was determined by converting the ratio of the peak area of the test compound to the internal standard into the remaining rate, and T1/2 was then calculated according to the following formula. T1/2 = (Ln2)/(k) = (0.693)/(k) [formula] Table 3. […]

[2] = in vitro liver microsome metabolic stability, beagle dog; assay type: in vitro ADME; conditions: Beagle dog liver microsomes, 37°C
Description: as §1, §2, §3, §4, §5, §6, §7, §8, §9, §10, §11

[3] = in vitro liver microsome metabolic stability, rat; assay type: in vitro ADME; conditions: Rat liver microsomes, 37°C
Description: as §1, §2, §3, §4, §5, §6, §7, §8, §9, §10, §11

Structure (SMILES): Cc1cc(F)cnc1[C@H](Nc1c(Nc2ccnc(C(=O)N(C)C(C)C)c2O)c(=O)c1=O)C1(C)CCCC1 [compound 066, (R)-4-((2-(((5-fluoro-3-methylpyridin-2-yl)(1-methylcyclopentyl)methyl)amino)-3,4-dioxocyclobut-1-en-1-yl)amino)-3-hydroxy-N-isopropyl-N-methylpicolinamide]
IC50 (human CCR6): 19 nM
CCR6 selectivity (human CCR6): 2522.7
IC50 (human CXCR2): 47900 nM

Structure (SMILES): CN(C)C(=O)c1nccc(Nc2c(N[C@@H](C#CC3CCC3)C3(C)CCCC3)c(=O)c2=O)c1O [compound 116, (R)-4-((2-((3-cyclobutyl-1-(1-methylcyclopentyl)prop-2-yn-1-yl)amino)-3,4-dioxocyclobut-1-en-1-yl)amino)-3-hydroxy-N,N-dimethylpicolinamide]
IC50 (human CCR6): 28.9 nM
CCR6 selectivity (human CCR6): 13.1
IC50 (human CXCR2): 379 nM

Structure (SMILES): CN(C)C(=O)c1nccc(Nc2c(N[C@@H](c3ncccc3CF)C3(C)CCCC3)c(=O)c2=O)c1O [compound 016, (R)-4-((2-(((3-(fluoromethyl)pyridin-2-yl)(1-methylcyclopentyl)methyl)amino)-3,4-dioxocyclobut-1-en-1-yl)amino)-3-hydroxy-N,N-dimethylpicolinamide]
IC50 (human CCR6): 55.8 nM
CCR6 selectivity (human CCR6): 494.9
IC50 (human CXCR2): 27600 nM

Structure (SMILES): CN(C)C(=O)c1nccc(Nc2c(N[C@@H](c3ncccc3Cl)C3(C)CCCC3)c(=O)c2=O)c1O [compound 019, (R)-4-((2-(((3-chloropyridin-2-yl)(1-methylcyclopentyl)methyl)amino)-3,4-dioxocyclobut-1-en-1-yl)amino)-3-hydroxy-N,N-dimethylpicolinamide]
IC50 (human CCR6): 5 nM
CCR6 selectivity (human CCR6): 364.2
IC50 (human CXCR2): 1820 nM

Structure (SMILES): CN(C)C(=O)c1nccc(Nc2c(N[C@@H](c3cccc(C(F)F)n3)C3(C)CCCC3)c(=O)c2=O)c1O [compound 107, (R)-4-((2-(((6-(difluoromethyl)pyridin-2-yl)(1-methylcyclopentyl)methyl)amino)-3,4-dioxocyclobut-1-en-1-yl)amino)-3-hydroxy-N,N-dimethylpicolinamide]
IC50 (human CCR6): 3.8 nM
CCR6 selectivity (human CCR6): 196.0
IC50 (human CXCR2): 745 nM

Structure (SMILES): CC1([C@@H](Nc2c(Nc3ccnc(C(=O)N4CCOCC4)c3O)c(=O)c2=O)c2nc(F)ccc2F)CCCC1 [compound 060, (R)-3-(((3,6-difluoropyridin-2-yl)(1-methylcyclopentyl)methyl)amino)-4-((3-hydroxy-2-(morpholine-4-carbonyl)pyridin-4-yl)amino)cyclobut-3-ene-1,2-dione]
IC50 (human CCR6): 1.9 nM
CCR6 selectivity (human CCR6): 207.0
IC50 (human CXCR2): 393 nM

Structure (SMILES): Cc1ccc(F)nc1[C@H](Nc1c(Nc2ccnc(C(=O)N(C)C)c2O)c(=O)c1=O)C1(C)CCCC1 [compound 014, (R)-4-((2-(((6-fluoro-3-methylpyridin-2-yl)(1-methylcyclopentyl)methyl)amino)-3,4-dioxocyclobut-1-en-1-yl)amino)-3-hydroxy-N,N-dimethylpicolinamide]
IC50 (human CCR6): 14.3 nM
CCR6 selectivity (human CCR6): 471.4
IC50 (human CXCR2): 6740 nM

Structure (SMILES): Cc1ccc(C)c([C@H](Nc2c(Nc3ccnc(C(=O)N(C)C)c3O)c(=O)c2=O)C2(C)CCCC2)n1 [compound 051, (R)-4-((2-(((3,6-dimethylpyridin-2-yl)(1-methylcyclopentyl)methyl)amino)-3,4-dioxocyclobut-1-en-1-yl)amino)-3-hydroxy-N,N-dimethylpicolinamide]
IC50 (human CCR6): 12.7 nM
CCR6 selectivity (human CCR6): 2469.1
IC50 (human CXCR2): 31400 nM

Structure (SMILES): CN(C)C(=O)c1nccc(Nc2c(N[C@@H](c3nc(F)ccc3Cl)C3(C)CCCC3)c(=O)c2=O)c1O [compound 025, (R)-4-((2-(((3-chloro-6-fluoropyridin-2-yl)(1-methylcyclopentyl)methyl)amino)-3,4-dioxocyclobut-1-en-1-yl)amino)-3-hydroxy-N,N-dimethylpicolinamide]
IC50 (human CCR6): 2.8 nM
CCR6 selectivity (human CCR6): 282.4
IC50 (human CXCR2): 791 nM

Structure (SMILES): CNC(=O)c1c(Cl)ccc(Nc2c(N[C@@H](c3ncccc3C)C3(C)CCCC3)c(=O)c2=O)c1O [compound 064, (R)-6-chloro-2-hydroxy-N-methyl-3-((2-(((1-methylcyclopentyl)(3-methylpyridin-2-yl)methyl)amino)-3,4-dioxocyclobut-1-en-1-yl)amino)benzamide]
IC50 (human CCR6): 6.5 nM
CCR6 selectivity (human CCR6): 1730.2
IC50 (human CXCR2): 11200 nM

Liver microsome T1-2 (min) Human [1]: 1014.44 min
Liver microsome T1-2 (min) Beagle dog [2]: 1869.75 min
IC50 (human CCR6): 56.2 nM
Liver microsome T1-2 (min) Rat [3]: 53.62 min
Structure (SMILES): Cc1nccnc1[C@H](Nc1c(Nc2ccc(Cl)c(C(=O)N(C)C)c2O)c(=O)c1=O)C1(C)CCCC1 [compound 078, (R)-6-chloro-2-hydroxy-N,N-dimethyl-3-((2-(((1-methylcyclopentyl)(3-methylpyrazin-2-yl)methyl)amino)-3,4-dioxocyclobut-1-en-1-yl)amino)benzamide]
